In patent publication US20150025105A1, “INDOLIZINE DERIVATIVES” (priority 2012, published 2015):
Read-outs that look alike come from different tables or passages of the source.

Experiments:
Type in all cases: biochemical
human Lp-PLA2 = biological target: T1, human Lp-PLA2 (Homo sapiens, UniProt Q13093); assay: Lp-PLA2 inhibition assay (UV-spectrometry, 2-thio-PAF/DTNB, 96-well)
T1 construct: purchased Cayman Chemical
T1 sequence (Q13093 22-441): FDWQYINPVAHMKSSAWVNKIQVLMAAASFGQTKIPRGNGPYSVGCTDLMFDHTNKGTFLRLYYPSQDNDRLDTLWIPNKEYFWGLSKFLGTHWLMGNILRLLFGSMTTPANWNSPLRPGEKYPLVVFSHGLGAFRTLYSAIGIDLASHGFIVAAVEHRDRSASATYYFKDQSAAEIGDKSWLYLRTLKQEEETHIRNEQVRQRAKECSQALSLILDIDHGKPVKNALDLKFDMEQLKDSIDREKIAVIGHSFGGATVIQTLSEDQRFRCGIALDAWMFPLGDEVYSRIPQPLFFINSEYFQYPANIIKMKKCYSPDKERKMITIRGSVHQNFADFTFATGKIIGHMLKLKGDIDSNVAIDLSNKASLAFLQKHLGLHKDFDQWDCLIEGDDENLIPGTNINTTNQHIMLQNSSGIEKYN
Experimental: The ability of synthesized indolizine derivatives (6) to inhibit (IC50 values, μM) human Lp-PLA2 (Cayman Chemical, Ann Arbor, Mich.) was determined based on a UV-spectrometry assay using 96-well plate format. […] The concentration of the test compound causing 50% inhibition (IC50, μM) was determined from the concentration-inhibition response curve (duplicate to quadruplicate determinations).
(§1) Phospholipase inhibition by synthesized compounds toward human Lp-PLA2, sPLA2 IIA and IV (Cayman Chemical Company, Ann Arbor, Mich.) are evaluated using a 96-well plate format. In this assay, different concentrations of test compounds (0.001-30 μM) are incubated with the PLA2 enzymes. The substrate hydrolysis by PLA2 is monitored by UV-spectroscopy. […] The concentration of the test compound causing 50% inhibition (IC50, μM) is determined from the concentration-inhibition response curve. Isothermal calorimetry (ITC) experiments using will be carried out to determine binding constant (KB) and dissociation constant (KD) of Lp-PLA2 inhibitors (Ann. Rev. Biophy. 37, 135-151, 2008; J. Am. Chem. Soc. 125, 10570-10579, 2003)]. Reference compounds (eg: varespladib and darapladib) will be used for comparison.

sPLA2 IIA = biological target: T2, sPLA2 IIA (Homo sapiens, UniProt P14555); assay: Phospholipase A2 (PLA2) inhibition assay, sPLA2 IIA; conditions: Table 2; for Selectivity Index (sPLA2/Lp-PLA2): ratio of sPLA2 IIA IC50 to Lp-PLA2 IC50
T2 construct: purchased Cayman Chemical Company
T2 sequence (P14555 21-144): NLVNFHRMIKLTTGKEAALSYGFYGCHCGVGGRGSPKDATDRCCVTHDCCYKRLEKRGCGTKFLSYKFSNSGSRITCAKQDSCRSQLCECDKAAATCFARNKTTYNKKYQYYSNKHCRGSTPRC
Experimental: as §1

human COX-1 = biological target: T3, human COX-1 (Homo sapiens, UniProt P23219); assay: Cyclooxygenase (COX) inhibition assay, COX-1 (enzyme immunoassay); conditions: Table 2
T3 construct: purchased Cayman Chemical
Experimental: (§2) The ability of the test compounds to inhibit (IC50 values, μM) human COX-1 and COX-2 (Cayman Chemical, Ann Arbor) is determined PGF2α, produced from COX reaction is measured by enzyme immunoassay. Either COX-1 or COX-2 enzyme in the presence of heme and various concentrations of test compound solutions (0.01-10 μM) is incubated after which substrate arachidonic acid is added. The concentration of the test compound causing 50% inhibition (IC50, μM) is calculated from the concentration-inhibition response curve.

human COX-2 = biological target: T4, human COX-2 (Homo sapiens, UniProt P35354); assay: Cyclooxygenase (COX) inhibition assay, COX-2 (enzyme immunoassay); conditions: Table 2
T4 construct: purchased Cayman Chemical
T4 sequence (P35354 18-604): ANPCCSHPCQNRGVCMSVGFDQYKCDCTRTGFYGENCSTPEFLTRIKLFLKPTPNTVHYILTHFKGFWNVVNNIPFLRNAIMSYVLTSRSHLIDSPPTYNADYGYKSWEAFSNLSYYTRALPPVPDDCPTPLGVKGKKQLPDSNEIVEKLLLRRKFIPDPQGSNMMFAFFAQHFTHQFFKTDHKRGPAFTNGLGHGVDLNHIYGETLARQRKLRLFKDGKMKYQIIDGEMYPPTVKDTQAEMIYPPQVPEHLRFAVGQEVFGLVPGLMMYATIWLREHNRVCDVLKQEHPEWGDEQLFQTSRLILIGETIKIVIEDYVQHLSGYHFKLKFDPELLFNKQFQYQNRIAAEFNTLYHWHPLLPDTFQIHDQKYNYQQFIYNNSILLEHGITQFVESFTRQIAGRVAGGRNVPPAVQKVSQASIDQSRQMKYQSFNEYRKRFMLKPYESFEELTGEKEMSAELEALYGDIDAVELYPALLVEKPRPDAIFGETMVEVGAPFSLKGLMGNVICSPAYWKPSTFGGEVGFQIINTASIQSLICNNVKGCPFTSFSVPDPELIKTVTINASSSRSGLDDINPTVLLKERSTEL
Experimental: as §2

[1] = Table 1, substrate 2-thio-PAF, DTNB, 0.1M Tris-HCl pH 7.2, read-out: Lp-PLA2 (IC50)
[2] = Table 2, read-out: Lp-PLA2 Inhibition (IC50)

T3 sequence (P23219 24-599): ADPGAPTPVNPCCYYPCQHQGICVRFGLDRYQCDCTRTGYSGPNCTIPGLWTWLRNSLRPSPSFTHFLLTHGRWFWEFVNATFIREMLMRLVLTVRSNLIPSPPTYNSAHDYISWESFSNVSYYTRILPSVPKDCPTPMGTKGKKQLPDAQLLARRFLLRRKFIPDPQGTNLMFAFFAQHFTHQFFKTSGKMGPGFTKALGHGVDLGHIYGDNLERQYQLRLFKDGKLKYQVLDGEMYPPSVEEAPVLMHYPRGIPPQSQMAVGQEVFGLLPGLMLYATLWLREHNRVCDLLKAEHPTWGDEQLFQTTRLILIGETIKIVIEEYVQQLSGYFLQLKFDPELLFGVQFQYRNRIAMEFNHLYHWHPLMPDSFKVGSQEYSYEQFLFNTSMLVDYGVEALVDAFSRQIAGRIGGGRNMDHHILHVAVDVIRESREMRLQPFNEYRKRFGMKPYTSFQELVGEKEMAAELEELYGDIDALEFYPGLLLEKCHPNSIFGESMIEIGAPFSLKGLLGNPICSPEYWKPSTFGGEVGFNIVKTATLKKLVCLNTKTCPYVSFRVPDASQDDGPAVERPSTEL

SMILES	IC50 (human Lp-PLA2; [1])	IC50 (human Lp-PLA2; [2])	IC50 (sPLA2 IIA)	Selectivity Index (sPLA2/Lp-PLA2) (sPLA2 IIA)	IC50 (human COX-1)	IC50 (human COX-2)
CC(=O)c1c(-c2ccccc2)c(C(=O)c2ccccc2)c2ccccn12 [Cmpd 1]	0.51 µM	0.51 µM	> 10 µM	>19.6	> 10 µM	> 10 µM
CC(=O)c1c(-c2ccc(C)cc2)c(C(=O)c2ccccc2)c2ccccn12 [Cmpd 11, 1-[1-benzoyl-2-p-tolylindolizin-3-yl]ethanone]	0.02 µM	–	–	–	–	–
CC(=O)c1c(-c2ccccc2)c(C(=O)c2ccc(C(F)(F)F)cc2)c2ccccn12 [Cmpd 7, 1-[2-phenyl-1-(4-(trifluoromethyl)benzoyl)indolizin-3-yl]ethanone]	0.06 µM	0.06 µM	> 10 µM	>166.6	> 10 µM	> 10 µM
CC(=O)c1c(-c2ccccc2)c(C(=O)c2ccc(C(C)C)cc2)c2ccccn12 [Cmpd 3, 1-[1-(4-isopropylbenzoyl)-2-phenylindolizin-3-yl]ethanone]	0.8 µM	0.8 µM	> 10 µM	>12.5	> 10 µM	> 10 µM
CC(=O)c1c(-c2ccccc2)c(C(=O)c2ccc(Cl)cc2)c2ccccn12 [Cmpd 10, 1-[1-(4-chlorobenzoyl)-2-phenylindolizin-3-yl]ethanone]	0.7 µM	0.94 µM	> 10 µM	>10.6	> 10 µM	> 10 µM
CC(=O)c1c(-c2ccccc2)c(C(=O)c2ccc(C)cc2)c2ccccn12 [Cmpd 2, 1-[1-(4-methylbenzoyl)-2-phenylindolizin-3-yl]ethanone]	0.03 µM	0.02 µM	> 10 µM	>500	> 10 µM	> 10 µM
COc1ccc(C(=O)c2c(-c3ccccc3)c(C(C)=O)n3ccccc23)cc1 [Cmpd 5, 1-[1-(4-methoxybenzoyl)-2-phenylindolizin-3-yl]ethanone]	0.76 µM	0.76 µM	> 10 µM	>13.1	> 10 µM	> 10 µM
CCCCc1ccc(C(=O)c2c(-c3ccccc3)c(C(C)=O)n3ccccc23)cc1 [Cmpd 4]	0.29 µM	0.3 µM	> 10 µM	>33.3	> 10 µM	> 10 µM
CC(=O)c1c(-c2ccccc2)c(C(=O)c2ccc(Br)cc2)c2ccccn12 [Cmpd 9, 1-[1-(4-bromobenzoyl)-2-phenylindolizin-3-yl]ethanone]	0.94 µM	0.7 µM	> 10 µM	>14.2	> 10 µM	> 10 µM
CSc1ccc(C(=O)c2c(-c3ccccc3)c(C(C)=O)n3ccccc23)cc1 [Cmpd 6, 1-[1-(4-(methylthio)benzoyl)-2-phenylindolizin-3-yl]ethanone]	0.24 µM	0.25 µM	> 10 µM	>40	> 10 µM	> 10 µM
CC(=O)c1c(-c2ccccc2)c(C(=O)c2ccc(F)c(F)c2)c2ccccn12 [Cmpd 12, 1-[1-(3,4-difluorobenzoyl)-2-phenylindolizin-3-yl]ethanone]	0.79 µM	–	–	–	–	–
CC(=O)c1c(-c2ccccc2)c(C(=O)c2ccc(F)cc2)c2ccccn12 [Cmpd 8, 1-[1-(4-fluorobenzoyl)-2-phenylindolizin-3-yl]ethanone]	0.25 µM	0.57 µM	> 10 µM	>17.5	> 10 µM	> 10 µM
